Patent publication US6881414B2, “Mild cosmetic composition with stabilized retinoids” (Unilever Home & Personal Care USA, division of Conopco, Inc., priority 2000, dated 2005)

Experiments:
[1] = test system: TGase I in keratinocytes; experiment: Transglutaminase (TGase I) ELISA assay in cultured keratinocytes; assay type: cell-based; settings: added effect of booster+retinol induced TGase inhibition over retinol alone
Procedure: An ELISA based TGase I assay, using a TGase I antibody, was used to assess the state of differentiation of the cultured keratinocytes in the examples that follow.
Keratinocytes (cultured as described above) were plated in 96 well plates at a density of 4,000-5,000 cells per well in 200 μl media. After incubation for two to three days, or until cells are ˜50% confluent, the media was changed to media containing test compounds (five replicates per test). The cells were cultured for a further 96 hours after which time the media was aspirated and the plates stored at −70° C. Plates were removed from the freezer, and the cells were washed twice with 200 μl of 1×PBS. The cells were incubated for one hour at room temperature (RIT) with TBS/5% BSA (wash buffer, bovine serum albumin). Next the TGase primary antibody was added: 50 μl of monoclonal anti-Tgase I Ab B.C. diluted 1:2000 in wash buffer. The primary antibody was incubated for 2 hours at 37° C. and then rinsed 6× with wash buffer. Cells were then incubated with 50 μl of secondary antibody (Fab fragment, peroxidase conjugated anti-mouse IgG obtaining from Amersham) diluted 1:4,000 in wash buffer for two hours at 37° C., then rinsed three times with wash buffer. Following the rinse with washing buffer, the cells were rinsed 3× with PBS. […] TGase levels were determined and expressed as percentage control.

[2] = target: T1, LRAT (Bos taurus, UniProt Q9BGL2); experiment: LRAT activity assay, RPE microsomes (to identify B1); assay type: biochemical, bovine; settings: for % Inhibition LRAT (100 μm): compound 100 μm; for % Inhibition LRAT (10 μm): compound 10 μm
T1 construct: followed by approximately 15 μg of RPE microsomal protein; tissue W. L. Lawson Co; host or cells: bovine retinal pigment epithelium microsomes
T1 sequence (Q9BGL2 1-230): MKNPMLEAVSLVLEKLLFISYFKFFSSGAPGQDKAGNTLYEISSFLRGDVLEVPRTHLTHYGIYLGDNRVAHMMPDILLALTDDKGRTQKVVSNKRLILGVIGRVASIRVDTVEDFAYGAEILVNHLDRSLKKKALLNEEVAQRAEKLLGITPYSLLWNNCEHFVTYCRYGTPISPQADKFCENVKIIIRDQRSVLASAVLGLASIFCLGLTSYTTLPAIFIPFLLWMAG
Procedure: 50 frozen hemisected bovine eyecups, with the retina and aqueous humor removed were obtained from W. L. Lawson Co., Lincoln, Nebr., U.S.A. The eyes were thawed overnight and the colored iridescent membrane was removed by peeling with forceps. […] The cell suspension was added to the iridescent membranes and the suspension was stirred for several minutes in a beaker with a Teflon stir bar. The suspension was filtered through a coarse filter (Spectra/Por 925 μl pore size polyethylene mesh) to remove large particles, and the resulting darkly colored suspension was homogenized using a Glas-Col with a motor driven Teflon homogenizer. The cell homogenate was centrifuged for 30 min. at 20,000 g (Sorvaal model RC-5B centrifuge with an SS34 rotor in 2.5×10 cm tubes at 14,000 RPM). The resulting supernatant was subjected to further centrifugation for 60 min. at 150,000 g (Beckman model L80 Ultracentrifuge with an SW50.1 rotor in 13×51 mm tubes at 40,000 RPM). The resulting pellets were dispersed into ˜5 mL 0.1M PO4/5 mM DTT, pH 7 buffer using a Heat Systems Ultrasonics, Inc. model W185D Sonifier Cell Disruptor, and the resulting microsomal dispersion was aliquoted into small tubes and stored at −70° C. The protein concentrations of the microsomes were determined using the BioRad Dye binding assay, using BSA as a standard.
2.3 Assay for ARAT and LRAT Activity (To Identify B1)
The following buffer was prepared and stored at 4° C.: 0.1M PO4/5 mM dithiothreitol, pH 7.0 (PO4/DTT). On the day of the assay, add 2 mg BSA per mL of buffer to give a PO4/DTT/BSA working buffer. 1 mM retinol substrate was prepared in acetonitrile and stored in amber bottles under nitrogen gas at −20° C. Solutions of 4 mM Palmitoyl-CoA in working buffer (stored in aliquots) and 4 mM dilauroyl phosphatidyl choline in ethanol were prepared and stored at −20° C. Inhibitors were prepared as 10 mM stock solutions in water, ethanol, acetonitrile or DMSO. The quench solution was prepared using pure ethanol containing 50 μg/mL butylated hydroxytoluene (BHT), and a hexane solution containing 50 μg/mL BHT was used for the extractions.
Incubate for 5 min. at 37° C. to equilibrate the reaction temperature and then add 5 μl 1 mM retinol. Cap the vials, vortex for 5 seconds and incubate for 30-90 minutes at 37° C. Quench the reaction by adding 0.5 mL ethanol/BHT. Extract the retinoids by adding 3 mL hexane/BHT, vortex the tubes for several seconds several times and centrifuge the tubes at low speed for 5 min. to quickly separate the layers. Remove the upper hexane layer into a clean vial, and re-extract the aqueous layer with another 3 mL hexane/BHT, as described above. Combine the hexane layers and evaporate the hexane by drying at 37° C. under a stream of nitrogen gas on a heated aluminum block. Store the dried residue at −20° C. until HPLC analysis. Quantitate the amount of retinyl palmitate and retinyl laurate for ARAT and LRAT activity, respectively, by integration of the HPLC signal as described below.
Note that the incubation solution contains 40 μM acyl donor, 100 μM or less inhibitor, 10 μM retinol, approximately 30 μg/mL microsomal protein, and nearly 0.1M PO4, pH 7/5 mM DTT/2 mg/mL BSA. […]
Samples for retinoid quantitation by HPLC were prepared by dissolving the residue in each vial with 100 μL of methanol. […] Aliquots of 60 μL were injected immediately and analyzed for retinoid content.
Two HPLC protocols were used for retinoid analysis. […] The column eluate was monitored from 300 nm to 400 nm.

[3] = target: T2, CRABPII (Homo sapiens, UniProt P29373); experiment: CRABPII antagonist radioactive binding assay (to identify B4); settings: competition with radioactive all trans retinoic acid; ligand excess ratio not given
T2 construct: made in house; host or cells: E. coli BLR(DE3)pLysS
T2 sequence (P29373 1-138): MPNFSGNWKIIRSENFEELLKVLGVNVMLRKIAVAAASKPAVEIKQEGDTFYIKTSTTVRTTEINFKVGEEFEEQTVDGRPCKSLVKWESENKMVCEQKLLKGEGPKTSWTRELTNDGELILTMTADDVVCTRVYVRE
Excerpt: 2.6 Assay for CRABPII Antagonists (To Identify B4)
2.6.1. Synthesis of CRABPII
The gene CRABPII was cloned in pET 29a-c(+) plasmid (Novagen). The cloned gene was under control of strong bacteriophage T7 transcription and translation signals. The source of T7 polymerase was provided by the host cell E.coli BLR(DE3)pLysS (Novagen). The latter has a chromosomal copy of T7 polymerase under lacUV5 control, induced by the presence of IPTG.
The plasmid was transferred into E. coli BLR(DE3)pLysS cells by transformation according to the manufacturer protocol (Novagen).
An overnight culture of the transformed cells was diluted 1:100 into 2×YT containing 50 μg/mL kanamycin and 25 μg/mL chloramphenicol. The cells grew while shaking at 37° C. until the OD at 600 nm reached 0.6-0.8. Then IPTG was added to a final concentration of 1 mM and the culture was incubated for an additional two hours. The cells were harvested by centrifugation at 5000 g for 10 minutes at room temperature. The pellet was stored at −20° C.
Purification was performed according to the method described in A. W. Norris & E. Li, Generation and characterization of cellular retinoic acid-binding proteins from Escherichia coli expression systems”. Methods Enzymol. 282:3-13 (1997).
The frozen pellet was thawed at RT and resuspended in 1-2 pellet volumes of freshly prepared lysis buffer (50 mM Tris-HCl, pH 8, 10% (w/v) sucrose, 1 mM EDTA, 0.05% (w/v) sodium azide, 0.5 mM DTT, 10 mM MnCl2, 2.5 mM phenylmethylsulfonyl fluoride, 2.5 mM benzamidine, 6 μg/mL DNase). The lysate was incubated for 30 min at room temperature. Further lysis was accomplished by sonication (six 30-sec bursts at […] alternated with five 30-sec delay on ice). […]
The supernatant from step a. was loaded onto a 2.5×100 cm column of sephacryl S-300 (Pharmacia) at room temperature. […] Collected 2-mL fractions were checked for ultraviolet absorbance at 280 nm. […]
For the competitive assay, another ligand in excess (6670:1, 670:1 or 70:1) was added to the mix. […] The radioactivity of the filtrate was measured by scintillation counter.

[4] = Retinoid solubility in oil (UV spectroscopy of filtrate); assay type: physicochemical
Procedure: As an illustration, solubility of retinol crystals in varying oils is as follows:
Retinoid solubility in oil is determined by the following procedure. A known weight of pure retinoid in excess of the expected solubility limit in the oil is added in an oil. Methanol is added to the mixture to dissolve all retinoid crystals. Nitrogen sparging is used to ensure all methanol was evaporated from the oil. Retinoid is allowed to recrystallize overnight. The sample is filtered through a 0.45 micron filter. Known dilutions of the filtrate in isopropanol are measured by UV spectroscopy at an appropriate wavelength (325 nm for retinol) and the concentration of retinoid determined against calibration standards of retinoid in isopropanol.

## CCCCC/C=C\C/C=C\CCCCCCCC(=O)N(CCO)CCO [Linoleamide-DEA, Linoleoyl Diethanolamide]
[1]
  % Inhibition Overall TG (- ROH/RE): 59%

## C=CC(C)(O)CCC=C(C)C (centres unmarked) [Linatool]
[2]
  % Inhibition LRAT (100 μm): 0%

## O=C(O)CCCCCCCCCCCCCCC(=O)O [Hexadecanedioic Acid]
[3]
  % Inhibition CRABPII: >50%

## CCCCCCCC/C=C/CCCCCCCC(=O)O [Elaidic Acid]
[3]
  % Inhibition CRABPII: >50%

## CC1=C(/C=C/C(C)=C/C=C/C(C)=C/CO)C(C)(C)CCC1 [retinol]
[4]; in C12-15 Alkyl benzoate
  Solubility of retinol crystals in oil: 85 wt %
[4]; in Cetiol OE
  Solubility of retinol crystals in oil: 80 wt %
[4]; in Cyclomethicone
  Solubility of retinol crystals in oil: 2.7 wt %
[4]; in Dimethicone
  Solubility of retinol crystals in oil: 0.49 wt %
[4]; in Isostearyl palmitate
  Solubility of retinol crystals in oil: 44 wt %
[4]; in Mineral oil
  Solubility of retinol crystals in oil: 34.2 wt %
[4]; in Triolein/Squalene (6:1)
  Solubility of retinol crystals in oil: 56.4 wt %

## CC(C)=CCC/C(C)=C/CC/C(C)=C/CC/C(C)=C/CO [Geranyl Geraniol]
[2]
  % Inhibition LRAT (10 μm): 16% +/− 9

## O=C1C[C@@H](c2ccc(O)cc2)Oc2cc(O)cc(O)c21 [Naringenin]
[2]
  % Inhibition LRAT (100 μm): 14%

## CN1CCN(C)C1=O [Dimethyl Imidazolidinone]
[1]
  % Inhibition Overall TG (- ROH/RE): 22%

## CC(C)=CCCC(C)=CCCC(C)=CCO [Farnesol]
[2]
  % Inhibition LRAT (10 μm): 10% +/− 7

## CC(/C=C/C=C(\C)C(=O)O)=C\C=C\C=C(C)\C=C\C=C(/C)C(=O)O [Crocetin]
[2]
  % Inhibition LRAT (10 μm): 0%

## CC(C)CCCCCCCCCCCCCCC(=O)O [Isostearic Acid]
[3]
  % Inhibition CRABPII: >50%
